Test results published in publication PMC11510433, “Exploration of the Solubility Hyperspace of Selected Active Pharmaceutical Ingredients in Choline- and Betaine-Based Deep Eutectic Solvents: Machine Learning Modeling and Experimental Validation” (Molecules, 2024).
Read-outs that look alike come from different tables or passages of the source.

How the values were obtained:
[1] = parameters: method as in ref 2017-Zhong-10.1021acs.jced.7b00065; conditions: solvent 1-propanol, ref 2017-Zhong-10.1021acs.jced.7b00065, cited from earlier work
[2] = A:D 1:1, x*DES 1.0 (water 0.00), T 25.0 °C, ref 2024-Cysewski-10.3390molecules29102296, cited from earlier work
[3] = shake-flask solubility of sulfonamides in choline chloride- and betaine-based deep eutectic solvents (new measurements); type: physicochemical
Method: The solubility measurements were preceded by the determination of the calibration curves for the studied sulfonamides. Stock solutions of these compounds were prepared in methanol and subsequently diluted. The obtained series of solutions with decreasing concentrations were then measured spectrophotometrically using an A360 spectrophotometer from AOE Instruments (Shanghai, China) in the wavelength range of 200 nm to 500 nm. Their characteristic wavelengths were determined, and the corresponding absorbance values were plotted against the concentrations of the solutions. Three separate curves were prepared, and the obtained values were averaged. The calibration curves were validated in terms of their linearity, expressed by the determination coefficient R^2, as well as the limits of detection (LOD) and quantification (LOQ).
For determining the solubility of the studied sulfonamides in different eutectic compositions, a standard shake-flask procedure was applied.
The first step in this procedure involved the preparation of the deep eutectic solvents, which was performed by combining a hydrogen bond donor with a hydrogen bond acceptor. The HBA:HBD molar ratio was set to 1:2. […] The eutectics were prepared by weighing appropriate amounts of the two counterparts in glass vessels and heating them until a homogenous solution was obtained.
The samples of sulfonamides in DESs were prepared by adding an excess amount of the solute to the test tube, followed by an addition of the specific eutectic. The saturated solutions obtained in this manner were placed in an Orbital Shaker Incubator ES-20/60 from Biosan (Riga, Latvia) and heated at 25 °C, 30 °C, 35 °C, or 40 °C for 24 h with stirring at 60 rev/min. Before the measurements, the samples were filtered using a 0.22 µm pore-size PTFE syringe filter. The spectra of the filtered solutions were recorded after the dilution with methanol in the 200 nm–500 nm wavelength range with a 1 nm resolution. […] The absorbance values found at the characteristic wavelengths were used together with the linear regression equations to calculate the concentration of the considered solutes. Simultaneously, for the computation of the mole fraction solubility, the density of the samples was determined by weighing 1 mL of the sample on a RADWAG (Radom, Poland) AS 110 R2.PLUS analytical balance with 0.1 mg precision. Three separate samples were measured for each system, and the values were averaged.

[4] = parameters: method as in ref 2014-Delgado-10.1007s10953-014-0169-0; conditions: 1-Propanol + water, ref 2014-Delgado-10.1007s10953-014-0169-0, cited from earlier work
[5] = best-performing ChCl-TEG system, 1:2, 25 °C

Q: Which “log(x1)exp” value ([1]; T 14.86 °C) does the source give for `Cn1c(=O)c2c(ncn2C)n(C)c1=O` [caffeine] here?
A: The value was -2.932.

Q: What about the “log(x1)exp” value ([1]; T 24.96 °C) of the same molecule?
A: The value was -2.752.

Q: And the “log(x1)exp” value ([1]; T 34.94 °C)?
A: Its value is -2.550.

Q: Which “log(x1)exp” value ([2]; choline chloride + DEG) does the source give for `CC(C)Cc1ccc(C(C)C(=O)O)cc1` (stereo not shown) [ibuprofen] here?
A: The value was -0.616.

Q: What about the “log(x1)exp” value ([2]; choline chloride + P2D) of the same molecule?
A: The value was -0.793.

Q: And the “log(x1)exp” value ([2]; choline chloride + TEG)?
A: The value was -0.580.

Q: Which Mole fraction solubility [3, 5] does the source give for `CCCN(CCC)S(=O)(=O)c1ccc(C(=O)O)cc1` [probenecid] here?
A: The Mole fraction solubility was 0.00124 mole fraction.

Q: With `Cc1cc(C)nc(NS(=O)(=O)c2ccc(N)cc2)n1` [sulfamethazine] as the molecule, how does the “log(x1)exp” value ([4]; x2* 0.0322, x3* 0.97, T 20.00 °C) read?
A: The value was -4.226.

Q: What about the “log(x1)exp” value ([4]; x2* 0.0322, x3* 0.97, T 25.00 °C) of the same molecule?
A: Its value is -4.133.

Q: What about the “log(x1)exp” value ([4]; x2* 0.0322, x3* 0.97, T 30.00 °C) of the same molecule?
A: The value was -4.044.

Q: For `O=C(O)c1cc(/N=N/c2ccc(S(=O)(=O)Nc3ccccn3)cc2)ccc1O` [sulfasalazine], which Mole fraction solubility ([3]; DES BI-DEG, HBA:HBD 1:2, 25°C) is on record?
A: The Mole fraction solubility was 0.67(±0.09) mole fraction ∙10^4.

Q: What about the Mole fraction solubility ([3]; DES BI-DEG, HBA:HBD 1:2, 30°C) of the same molecule?
A: The Mole fraction solubility was 0.70(±0.08) mole fraction ∙10^4.

Q: What about the Mole fraction solubility ([3]; DES BI-DEG, HBA:HBD 1:2, 35°C) of the same molecule?
A: The Mole fraction solubility was 0.75(±0.06) mole fraction ∙10^4.

Q: What about the Mole fraction solubility ([3]; DES BI-DEG, HBA:HBD 1:2, 40°C) of the same molecule?
A: The Mole fraction solubility was 0.79(±0.05) mole fraction ∙10^4.

Q: What about the Mole fraction solubility ([3]; DES BI-ETG, HBA:HBD 1:2, 25°C) of the same molecule?
A: The Mole fraction solubility was 0.55(±0.07) mole fraction ∙10^4.

Q: And the Mole fraction solubility ([3]; DES BI-ETG, HBA:HBD 1:2, 30°C)?
A: The Mole fraction solubility was 0.58(±0.02) mole fraction ∙10^4.

Q: And the Mole fraction solubility ([3]; DES BI-ETG, HBA:HBD 1:2, 35°C)?
A: Its Mole fraction solubility is 0.62(±0.06) mole fraction ∙10^4.

Q: What about the Mole fraction solubility ([3]; DES BI-ETG, HBA:HBD 1:2, 40°C) of the same molecule?
A: Its Mole fraction solubility is 0.67(±0.08) mole fraction ∙10^4.

Q: What about the Mole fraction solubility ([3]; DES BI-P2D, HBA:HBD 1:2, 25°C) of the same molecule?
A: The Mole fraction solubility was 0.41(±0.06) mole fraction ∙10^4.

Q: What about the Mole fraction solubility ([3]; DES BI-P2D, HBA:HBD 1:2, 30°C) of the same molecule?
A: Its Mole fraction solubility is 0.46(±0.10) mole fraction ∙10^4.

Q: What about the Mole fraction solubility ([3]; DES BI-P2D, HBA:HBD 1:2, 35°C) of the same molecule?
A: The Mole fraction solubility was 0.49(±0.08) mole fraction ∙10^4.

Q: What about the Mole fraction solubility ([3]; DES BI-P2D, HBA:HBD 1:2, 40°C) of the same molecule?
A: The Mole fraction solubility was 0.52(±0.04) mole fraction ∙10^4.

Q: What about the Mole fraction solubility ([3]; DES BI-TEG, HBA:HBD 1:2, 25°C) of the same molecule?
A: The Mole fraction solubility was 0.69(±0.04) mole fraction ∙10^4.

Q: What about the Mole fraction solubility ([3]; DES BI-TEG, HBA:HBD 1:2, 30°C) of the same molecule?
A: Its Mole fraction solubility is 0.72(±0.02) mole fraction ∙10^4.

Q: And the Mole fraction solubility ([3]; DES BI-TEG, HBA:HBD 1:2, 35°C)?
A: Its Mole fraction solubility is 0.77(±0.09) mole fraction ∙10^4.

Q: And the Mole fraction solubility ([3]; DES BI-TEG, HBA:HBD 1:2, 40°C)?
A: Its Mole fraction solubility is 0.81(±0.07) mole fraction ∙10^4.

Q: And the Mole fraction solubility ([3]; DES ChCl-DEG, HBA:HBD 1:2, 25°C)?
A: Its Mole fraction solubility is 0.71(±0.09) mole fraction ∙10^4.

Q: And the Mole fraction solubility ([3]; DES ChCl-DEG, HBA:HBD 1:2, 30°C)?
A: The Mole fraction solubility was 0.75(±0.07) mole fraction ∙10^4.

Q: And the Mole fraction solubility ([3]; DES ChCl-DEG, HBA:HBD 1:2, 35°C)?
A: The Mole fraction solubility was 0.80(±0.14) mole fraction ∙10^4.

Q: And the Mole fraction solubility ([3]; DES ChCl-DEG, HBA:HBD 1:2, 40°C)?
A: The Mole fraction solubility was 0.83(±0.02) mole fraction ∙10^4.

Q: What about the Mole fraction solubility ([3]; DES ChCl-ETG, HBA:HBD 1:2, 25°C) of the same molecule?
A: Its Mole fraction solubility is 0.62(±0.09) mole fraction ∙10^4.

Q: What about the Mole fraction solubility ([3]; DES ChCl-ETG, HBA:HBD 1:2, 30°C) of the same molecule?
A: The Mole fraction solubility was 0.65(±0.01) mole fraction ∙10^4.

Q: What about the Mole fraction solubility ([3]; DES ChCl-ETG, HBA:HBD 1:2, 35°C) of the same molecule?
A: Its Mole fraction solubility is 0.69(±0.06) mole fraction ∙10^4.

Q: And the Mole fraction solubility ([3]; DES ChCl-ETG, HBA:HBD 1:2, 40°C)?
A: The Mole fraction solubility was 0.72(±0.08) mole fraction ∙10^4.

Q: And the Mole fraction solubility ([3]; DES ChCl-P2D, HBA:HBD 1:2, 25°C)?
A: Its Mole fraction solubility is 0.50(±0.08) mole fraction ∙10^4.

Q: And the Mole fraction solubility ([3]; DES ChCl-P2D, HBA:HBD 1:2, 30°C)?
A: The Mole fraction solubility was 0.53(±0.03) mole fraction ∙10^4.

Q: What about the Mole fraction solubility ([3]; DES ChCl-P2D, HBA:HBD 1:2, 35°C) of the same molecule?
A: Its Mole fraction solubility is 0.56(±0.07) mole fraction ∙10^4.

Q: What about the Mole fraction solubility ([3]; DES ChCl-P2D, HBA:HBD 1:2, 40°C) of the same molecule?
A: The Mole fraction solubility was 0.59(±0.01) mole fraction ∙10^4.

Q: And the Mole fraction solubility ([3]; DES ChCl-TEG, HBA:HBD 1:2, 25°C)?
A: Its Mole fraction solubility is 0.75(±0.05) mole fraction ∙10^4.

Q: And the Mole fraction solubility ([3]; DES ChCl-TEG, HBA:HBD 1:2, 30°C)?
A: Its Mole fraction solubility is 0.78(±0.07) mole fraction ∙10^4.

Q: What about the Mole fraction solubility ([3]; DES ChCl-TEG, HBA:HBD 1:2, 35°C) of the same molecule?
A: Its Mole fraction solubility is 0.82(±0.01) mole fraction ∙10^4.

Q: And the Mole fraction solubility ([3]; DES ChCl-TEG, HBA:HBD 1:2, 40°C)?
A: The Mole fraction solubility was 0.86(±0.02) mole fraction ∙10^4.

Q: And the Mole fraction solubility [3, 5]?
A: Its Mole fraction solubility is 0.000075 mole fraction.
